From PMC8244813 (Nutrition and cancer, 2019)
Read-outs that look alike come from different tables or passages of the source.

How the values were obtained:
[1] = SFN metabolites in plasma by LC-MS/MS; conditions: BSE group n=42; for Plasma level of individual SFN metabolite, postintervention, Mean (SE): after 200 μmol SFN daily, 4–8 wk; for Plasma level of individual SFN metabolite, preintervention, Mean (SE): baseline before supplementation
[2] = tested on: AMACR mRNA in LNCaP cells; conditions: 6 and 24 h after a single SFN treatment; cited from earlier work
[3] = tested on: AMACR expression in colon cancer Caco-2 cells; conditions: SFN treatment; cited from earlier work
[4] = in vivo

SMILES | Plasma level of individual SFN metabolite, change (post minus pre), Mean (SE) [1] | Plasma level of individual SFN metabolite, postintervention, Mean (SE) [1] | Plasma level of individual SFN metabolite, preintervention, Mean (SE) [1] | AMACR mRNA levels in LNCaP cells [2] | AMACR expression in colon cancer Caco-2 cells [3] | Plasma level of individual SFN metabolite, change (post minus pre), Mean (SE) [4] | Plasma level of individual SFN metabolite, preintervention, Mean (SE) [4]
C[S+]([O-])CCCCN=C=S (stereo not shown) [SFN, sulforaphane] | 0.0001 (0.0001) μM | 0.0001 (0.0001) μM | 0.00 (0.00) μM | significantly downregulated | significantly decrease AMACR expression | – | –
C[S+]([O-])CCCCNC(=S)SCC(N)C(=O)NCC(=O)O (stereo not shown) [SFN-CG, SFN-cysteinylglycine] | – | – | – | – | – | 0.04 (0.01) μM | 0.00 (0.00) μM
C[S+]([O-])CCCCNC(=S)SCC(N)C(=O)O (stereo not shown) [SFN-Cys, SFN-cysteine] | 0.02 (0.01) μM | 0.02 (0.01) μM | 0.00 (0.00) μM | – | – | – | –
C[S+]([O-])CCCCNC(=S)SC[C@H](NC(=O)CC[C@H](N)C(=O)O)C(=O)NCC(=O)O (stereo partly shown) [SFN-GSH, SFN-glutathione] | 0.03 (0.01) μM | 0.03 (0.01) μM | 0.00 (0.00) μM | – | – | – | –
CC(=O)N[C@@H](CSC(=S)NCCCC[S+](C)[O-])C(=O)O (stereo partly drawn) [SFN-NAC, SFN N-acetyl-L-cysteine] | 0.03 (0.01) μM | 0.03 (0.01) μM | 0.00 (0.00) μM | – | – | – | –
